One experiment relates to HepG2 cells. Put plainly: MTT assay, HepG2 survival. Type of experiment: cell-based, human. To be noted: FIG. 7.
The test system of a further experiment is Hs578T cells. Kind of experiment: Hs578T cell growth inhibition (CCK-8, 3 days). Conditions: Homo sapiens, Hs-578T, 72 h, triple negative breast cancer, read-out: Antiproliferative IC50, Hs578T. Type of experiment: cell-based. The protocol: The inhibitory effects of compound 22 were assessed against YAP TEAD related NF2-deficient mesothelioma cell NCI-H226 and triple negative breast cancer cell Hs578T. The growth inhibition ratio was measured using a CCK-8 assay after 3 days of treatments.

The subject of the next experiment is Huh7 cells. Kind of experiment: Apoptosis by Annexin V/PI flow cytometry, Huh7. Type of experiment: cell-based, human. To be noted: 48 h. As for the experimental part:
In order to gain deeper insights into the underlying anticancer mechanism of compound 22, experiments were performed to validate whether the induction of G1 phase cells by compound 22 was linked to apoptosis. To achieve this, the cells treated with compound 22 were subjected to PI and FITC-annexin V staining to detect apoptotic cells. […] The proportions of total apoptosis including the early stage apoptosis and the later stage of apoptosis were 66.8%, and 83.5%, respectively, at concentrations of 5 and 10 μM. This trend was similarly observed in the case of HepG2 cells. […] The impact of compound 22 on inducing cell apoptosis was less pronounced in HepG2 cells compared to Huh7 cells, aligning with the outcomes of the cell cycle analysis, providing further coherence to the observed effects of compound 22 on these cell lines.
Apoptosis was detected using an Annexin V-FITC apoptosis detection kit (Thermo Fisher Scientific) following the manufacturer’ instructions. Briefly, about 50000 cells were suspended in 500 μl of binding buffer. The cells were incubated with 5 μl FITC-conjugated Annexin V for 15 minutes and incubated with 5 μl propidium Iodide staining solution for 15 minutes in darkness at room temperature. Cell apoptosis was then analyzed by flow cytometry using a FACSCalibur flow cytometer (Becton Dickinson, San Jose, CA).
For orientation: A flow cytometer gives signals particle by particle.

The subject of the next experiment is TEADs. Put plainly: TEAD-specific 8×GTIIC-luciferase reporter assay. Type of experiment: cell-based. The protocol: A series of compounds featuring a chloromethyl ketone moiety were synthesized (Schemes 1-4). The inhibitory rate of this series of compounds was tested using 8×GTIIC-luciferase reporter assay at 10 μM.
Next, the inhibition of TEAD transcription activity of compounds was tested varying the dosage using the 8×GTIIC-luciferase reporter assay. […] The aim was to determine whether its inhibition of TEAD transcription can lead to downregulation of the YAP-TEAD target genes. CTGF is one of the best characterized (bona fide) target gene of YAP and TAZ.
To further investigate the mechanism of the inhibitory effect of compounds in Huh7 cells, TEADs specific luciferase reporter assays were performed with compounds 22 and 12 at several concentrations. […] TEAD downstream gene expression patterns were evaluated in liver cancer cells Huh7, which has been evidenced with relative high expression of YAP and TEAD2.
HEK 293T cells were plated at 2×10^4 cells/well in a 96 well microplate and were transfected with 50 ng of 8×GTIIC-luciferase plasmid (Addgene #34615) and 0.5 ng of pRL-CMV (Promega #E226A) by using lipofectamine 3000 (Life Technologies #L3000). The 8×GTIIc-luciferase reporter is a Yap/Taz-activity reporter containing eight TEAD consensus binding sequences. After 6 h, transfected cells were treated with various concentrations of compounds or DMSO control. Luciferase signals were measured using the Dual Luciferase Reporter Assay System (Promega, E1960) according to the manufacturer's instructions. Experiments were performed in triplicate and repeated at least three times.

For the compound `O=C(CCl)c1c[nH]c2cc(Cl)c(OCc3cccc(C(F)(F)F)c3)cc12` [Compound 22, 2-chloro-1-(6-chloro-5-((3-(trifluoromethyl)benzyl)oxy)-1H-indol-3-yl)ethan-1-one], the “HepG2 survival, MTT assay” value in the experiment on HepG2 cells is “inhibits”. Also, the IC50 (commonly the concentration that gives 50% inhibition) in the experiment with Hs578T cells was found to be 2600 nM; with TEADs (dose response, read-out: TEADs transcription inhibition IC50, luciferase reporter assay) it was 2100 nM. The “Proportion of total apoptosis (early + late), Huh7” value with Huh7 cells (5 μM) is 66.8%; with Huh7 cells (10 μM) it was 83.5%. Moreover, the inhibition at 10 µM in the experiment with TEADs (10 μM, 8×GTIIC-luciferase, read-out: Luciferase reporter assay inhibitory rate) is 93.6%.
